# Source: patent US8338473B2, “Derivatives of psammaplin A, a method for their synthesis and their uses for the prevention or treatment of cancer” (Centre National de la Recherche Scientifique, priority 2007, dated 2012)
# Where two headings read alike, the source gives them in different places.
# Tests used:
# p16INK4a promoter = test: Methylation specific PCR for the p16 gene; assay type: cell-based; details: 24 hrs
# Experimental: FIG. 2: a) Methylation specific PCR for the RARβ gene after 16 and 24 hrs of treatment with the indicated compounds; b) Methylation specific PCR for the p16 gene after 24 hrs of the indicated treatments. Samples are representative of real duplicates; c) p16 expression levels in U937 cells after 24 hrs with the indicated treatments; d) DNMT enzymatic in vitro assay carried out with 1.5 and 50 μM of the indicated compounds;
# DNA extraction was performed as described below. Bisulfite treatment and PCR for the determination of p16 methylation was performed as described from the suppliers (Chemicon).
# A-375 cells = test: MTT cytotoxicity assay, A-375; details: read-out: IC50 values, MTT cytotoxicity assay; A-375, 48 h
# [1] = tested on: HCT-116 colon carcinoma cells xenografted in immunoincompetent mice; details: for Normalised tumour weight: mean of n = 10
# HCT-116 cells = test: MTT cytotoxicity assay, HCT-116; details: read-out: IC50 values, MTT cytotoxicity assay; HCT-116, 48 h
# DU-145 cells = test: MTT cytotoxicity assay, DU-145; details: read-out: IC50 values, MTT cytotoxicity assay; DU-145, 48 h
# [2] = tested on: ex vivo AML patient blasts; test: Cell cycle and apoptosis in ex vivo AML patient blasts; assay type: cell-based, human; details: for cell cycle arrest and apoptosis (caspase 3 activation): 4 ex vivo cultures, AML patients #102, #108, #109, #116
# Experimental: FIG. 4: a) Cell cycle analyses and apoptosis carried out in ex vivo samples from AML patients identified with numbers; b) Cell cycle analysis, apoptosis and histone H3 acetylation levels of #116 AML cells after 20 hrs is of the indicated treatments.
# (§1) Human leukemia cell line U937 was propagated in RPMI medium supplemented with 10% FBS (Foetal bovine serum; Hyclone) and antibiotics (100 U/mL penicillin, 100 μg/mL streptomycin and 250 ng/mL amphotericin-B). Cells were kept at the constant concentration of 200000 cells per milliliter of culture medium. For AML samples, bone marrow containing 80% to 90% leukemic blasts was purified over Ficoll. This study was approved by the Ethical Committee of the Second University of Naples.
# U937 cells = test: Caspase 3 apoptotic assay in U937 cells; assay type: cell-based, human; details: U937, 24 hrs
# Experimental: (§2) FIG. 1: a) Cell cycle analysis of U937 cells treated for 30 hrs with the indicated compounds used at 1 and 5 μM; b) Caspase 3 apoptotic assay of the indicated compounds after 24 hrs of treatment in the U937 cells; c) Tubulin acetylation and p21 expression levels at 6 and 16 hrs after treatment with the indicated compounds; total tubulin expression levels are used for equal loading; d) Histone H3 acetylation and K9 H3 methylation expression levels at 6 and 16 hrs after treatment with the indicated compounds; total tubulin expression levels are used for equal loading; e) K9, K14, K18 histone H3 acetylation expression levels at 6 and 16 hrs after treatment with the indicated compounds; total ERKs expression levels are used for equal loading; f) HDAC1 enzymatic assay: IP-HDAC1 is incubated with the indicated inhibitors for 24 Hrs; activity is measured as ^3H-acetyl release; g) HDAC4 enzymatic assay: IP-HDAC4 is incubated with the indicated inhibitors for 24 hrs; activity is measured as ^3H-acetyl release.
# HDAC = details: cited from earlier work
# p21WAF1/CIP1 = test: p21 expression, Western blot in U937 cells; assay type: cell-based, human
# Experimental: as §2
# (§3) FIG. 3: a) Cell cycle and apoptosis analysis carried out in U937 cells after 24 hrs with the indicated compounds; values are media of independent triplicates; b) CD11c expression analysis carried out in U937 cells with the indicated compounds; values are media of independent duplicates; c) Tubuline acetylation and p21 expression levels in U937 cells after 24 hrs with the indicated treatments; total ERKs expression levels are used for equal loading; d) acetylation of histone H3 under the conditions indicated in (c).
# For the determination of p21^WAF1/CIP1 and p16^INK4 100 μg of total protein extracts were separated on a 15% polyacrylammide gels and blotted. Western blots were shown for p21 (Transduction Laboratories, dilution 1:500), p16 (Santa Cruz) and total ERKs (Santa Cruz) were used to normalise for equal loading. For alpha-tubulin acetylation 25 μg of total protein extracts were separated on a 10% polyacrylamide gels and blotted. […]
# [3] = tested on: breast cancer cells (ZR75.1); test: Anti-proliferative and apoptogenic action in breast cancer cells; assay type: cell-based; details: data not shown
# HDAC6 = target: T1, HDAC6 (Homo sapiens, UniProt Q9UBN7); test: Alpha tubulin acetylation in U937 cells (HDAC6 readout); assay type: cell-based; details: U937, 6 and 16 hrs
# T1 construct: Tubuline acetylation and p21 expression levels in U937 cells after 24 hrs with the indicated treatments; endogenous in cells; host or cells: U937
# Experimental: as §2, with “release. […]” for “release.”
# [4] = tested on: U937 acute myeloid leukemia cell line; test: Cell cycle analysis in U937 cells; assay type: cell-based, human
# Experimental: as §2, §3, §1
# MS-275 (Schering A G) was dissolved in ethanol and used at 5×10^−6M; valproic acid (VPA; Sigma) was used at 1 mM. All other compounds described were dissolved in DMSO (Sigma-Aldrich) and used at 1 or 5 μM.
# 2.5×10^5 cells were collected and resuspended in 500 μL of a hypotonic buffer (0.1% Triton X-100, 0.1% sodium citrate, 50 μg/mL propidium iodide, RNAse A). Cells were incubated in the dark for 30 min. Samples were acquired on a FACS-Calibur flow cytometer using the Cell Quest software (Becton Dickinson) and analysed with standard procedures using the Cell Quest software (Becton Dickinson) and the ModFit LT version 3 Software (Verity). All the experiments were performed 3 times.
# [5] = tested on: prostate cancer cells (LnCap); test: Anti-proliferative and apoptogenic action in prostate cancer cells; assay type: cell-based; details: data not shown
# histone H3 = test: Histone H3 acetylation and K9 H3 methylation levels in U937 cells; assay type: cell-based, human; details: U937, 6 and 16 hrs
# Experimental: as §2
# For the determination of p21^WAF1/CIP1 and p16^INK4 100 μg of total protein extracts were separated on a 15% polyacrylammide gels and blotted. Western blots were shown for p21 (Transduction Laboratories, dilution 1:500), p16 (Santa Cruz) and total ERKs (Santa Cruz) were used to normalise for equal loading. For alpha-tubulin acetylation 25 μg of total protein extracts were separated on a 10% polyacrylamide gels and blotted. Western blots were shown for acetylated alpha-tubulin (Sigma, dilution 1:500) and total ERKs (Santa Cruz) or total tubulin (Sigma) were used to normalise for equal loading.
# HDAC1 = HDAC1 (Homo sapiens, UniProt Q13547); test: HDAC1 enzymatic assay (IP-HDAC1, 3H-acetyl release); assay type: biochemical; details: IP-HDAC1 incubated with inhibitor 24 hrs
# Experimental: as §2
# HDAC4 = HDAC4 (Homo sapiens, UniProt P56524); test: HDAC4 enzymatic assay (IP-HDAC4, 3H-acetyl release); assay type: biochemical; details: IP-HDAC4 incubated with inhibitor 24 hrs
# Experimental: as §2
# [6] = tested on: histone deacetylases (HDAC); details: in vitro cell-free enzyme assay; read-out: IC50, inhibition of histone deacetylases (HDAC); cited from earlier work
# [7] = Earlier tolerability tests in mice; assay type: in vivo; details: 30 mg/kg
# Description: There were 10 animals in each group.
# [8] = day 1, 20 mg/kg i.p. every second day
# [9] = day 4, 20 mg/kg i.p. every second day
# [10] = day 12, 20 mg/kg i.p. every second day
# [11] = day 17, 20 mg/kg i.p. every second day
# [12] = day 22, 20 mg/kg i.p. every second day
# HDAC1, sequence (Q13547 whole entry, species assumed): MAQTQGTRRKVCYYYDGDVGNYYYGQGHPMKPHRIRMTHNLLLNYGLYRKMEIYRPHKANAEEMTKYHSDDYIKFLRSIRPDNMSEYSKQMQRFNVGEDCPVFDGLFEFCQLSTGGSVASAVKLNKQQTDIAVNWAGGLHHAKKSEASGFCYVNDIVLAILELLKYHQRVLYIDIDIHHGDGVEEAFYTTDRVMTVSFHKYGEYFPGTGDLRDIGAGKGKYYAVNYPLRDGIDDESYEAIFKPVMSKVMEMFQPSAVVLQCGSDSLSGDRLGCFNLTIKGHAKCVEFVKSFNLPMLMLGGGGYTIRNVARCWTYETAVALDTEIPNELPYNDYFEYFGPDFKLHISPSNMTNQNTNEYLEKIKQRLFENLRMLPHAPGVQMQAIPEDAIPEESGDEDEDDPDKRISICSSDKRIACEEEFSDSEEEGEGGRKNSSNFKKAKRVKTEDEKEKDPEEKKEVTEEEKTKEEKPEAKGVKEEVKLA
# HDAC4, sequence (P56524 whole entry, species assumed): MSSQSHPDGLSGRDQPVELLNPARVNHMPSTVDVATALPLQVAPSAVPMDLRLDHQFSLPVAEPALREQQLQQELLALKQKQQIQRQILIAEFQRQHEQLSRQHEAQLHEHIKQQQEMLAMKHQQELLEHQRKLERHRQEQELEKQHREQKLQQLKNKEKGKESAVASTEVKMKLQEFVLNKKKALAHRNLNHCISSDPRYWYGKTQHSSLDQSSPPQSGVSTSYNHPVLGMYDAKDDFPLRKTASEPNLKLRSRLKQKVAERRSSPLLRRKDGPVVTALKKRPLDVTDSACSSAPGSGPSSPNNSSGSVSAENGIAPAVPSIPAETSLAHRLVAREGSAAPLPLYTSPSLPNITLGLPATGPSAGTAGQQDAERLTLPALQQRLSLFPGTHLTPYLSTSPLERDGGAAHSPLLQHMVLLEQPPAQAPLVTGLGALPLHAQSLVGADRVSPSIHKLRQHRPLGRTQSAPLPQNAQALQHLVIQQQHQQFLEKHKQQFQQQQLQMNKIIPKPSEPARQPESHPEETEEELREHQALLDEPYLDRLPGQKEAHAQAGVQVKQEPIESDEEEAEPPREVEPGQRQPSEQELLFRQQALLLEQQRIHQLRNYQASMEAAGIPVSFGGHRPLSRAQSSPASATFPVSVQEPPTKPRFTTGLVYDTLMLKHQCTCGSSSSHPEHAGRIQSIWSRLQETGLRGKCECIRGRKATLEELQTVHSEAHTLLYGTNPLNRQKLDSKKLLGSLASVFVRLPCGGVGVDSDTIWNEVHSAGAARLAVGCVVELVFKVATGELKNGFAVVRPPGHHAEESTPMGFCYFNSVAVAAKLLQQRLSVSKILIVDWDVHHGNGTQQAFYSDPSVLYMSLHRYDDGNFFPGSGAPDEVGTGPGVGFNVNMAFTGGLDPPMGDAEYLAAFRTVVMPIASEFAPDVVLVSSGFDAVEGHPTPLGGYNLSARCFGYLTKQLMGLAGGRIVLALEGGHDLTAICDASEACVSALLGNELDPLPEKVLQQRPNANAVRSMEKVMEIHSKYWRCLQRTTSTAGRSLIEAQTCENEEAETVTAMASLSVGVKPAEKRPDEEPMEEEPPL
# HDAC4, sequence (O15379 whole entry partner, species assumed): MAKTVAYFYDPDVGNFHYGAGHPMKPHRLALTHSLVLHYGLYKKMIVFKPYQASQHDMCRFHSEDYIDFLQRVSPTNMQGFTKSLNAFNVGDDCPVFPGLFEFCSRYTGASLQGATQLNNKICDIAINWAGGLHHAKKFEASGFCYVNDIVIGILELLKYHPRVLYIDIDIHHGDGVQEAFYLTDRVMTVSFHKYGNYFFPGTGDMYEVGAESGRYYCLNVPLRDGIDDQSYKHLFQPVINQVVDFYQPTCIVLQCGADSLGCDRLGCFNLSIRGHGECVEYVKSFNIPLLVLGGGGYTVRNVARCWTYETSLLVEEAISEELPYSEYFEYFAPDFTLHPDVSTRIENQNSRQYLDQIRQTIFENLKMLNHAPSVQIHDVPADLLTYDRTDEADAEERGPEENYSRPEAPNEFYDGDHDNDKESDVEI
# T1 sequence (Q9UBN7 whole entry): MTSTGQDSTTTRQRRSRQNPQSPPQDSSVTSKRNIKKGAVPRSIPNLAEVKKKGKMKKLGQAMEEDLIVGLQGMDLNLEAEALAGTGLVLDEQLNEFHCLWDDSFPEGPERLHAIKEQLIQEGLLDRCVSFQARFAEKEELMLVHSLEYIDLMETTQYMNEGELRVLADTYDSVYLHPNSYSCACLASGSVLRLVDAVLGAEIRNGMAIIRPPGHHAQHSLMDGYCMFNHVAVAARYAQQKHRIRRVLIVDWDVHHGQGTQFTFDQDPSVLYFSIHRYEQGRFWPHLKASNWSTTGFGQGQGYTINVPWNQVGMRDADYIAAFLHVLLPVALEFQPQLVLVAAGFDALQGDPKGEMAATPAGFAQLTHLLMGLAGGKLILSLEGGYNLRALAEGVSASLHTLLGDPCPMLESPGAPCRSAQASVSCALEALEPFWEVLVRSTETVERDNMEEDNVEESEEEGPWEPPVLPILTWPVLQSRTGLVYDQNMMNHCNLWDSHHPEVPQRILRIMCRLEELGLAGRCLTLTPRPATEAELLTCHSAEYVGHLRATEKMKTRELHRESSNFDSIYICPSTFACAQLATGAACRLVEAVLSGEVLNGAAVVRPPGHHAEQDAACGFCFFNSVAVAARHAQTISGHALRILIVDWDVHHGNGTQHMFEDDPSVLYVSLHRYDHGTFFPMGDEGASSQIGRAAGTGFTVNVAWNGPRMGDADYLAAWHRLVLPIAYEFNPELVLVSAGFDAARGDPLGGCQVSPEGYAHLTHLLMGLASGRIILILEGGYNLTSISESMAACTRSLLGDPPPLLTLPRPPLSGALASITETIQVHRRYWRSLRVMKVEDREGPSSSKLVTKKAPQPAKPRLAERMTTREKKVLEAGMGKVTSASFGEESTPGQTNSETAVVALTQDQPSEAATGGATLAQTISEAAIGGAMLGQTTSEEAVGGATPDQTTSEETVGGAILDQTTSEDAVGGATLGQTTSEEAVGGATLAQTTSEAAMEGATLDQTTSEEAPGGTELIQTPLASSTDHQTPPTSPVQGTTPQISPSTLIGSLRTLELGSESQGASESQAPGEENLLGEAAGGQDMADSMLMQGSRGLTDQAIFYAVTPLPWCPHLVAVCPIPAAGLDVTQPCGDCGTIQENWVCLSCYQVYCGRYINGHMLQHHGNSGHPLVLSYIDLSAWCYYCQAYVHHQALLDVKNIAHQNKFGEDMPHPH
compound,measurement,setting,value
Nc1ncn([C@@H]2O[C@H](CO)[C@@H](O)[C@H]2O)c(=O)n1 [5-azacytidine],unmethylated p16INK4a promoter DNA (MSP),p16INK4a promoter,very similar to that seen with UVI5008
Nc1ccccc1NC(=O)c1ccc(CNC(=O)OCc2cccnc2)cc1 [MS-275],IC50,A-375 cells,2.4 ± 0.7 µM
same,Percent Growth Inhibition after 22 days,[1]; 20 mg/kg i.p. every second day,35 ± 12%
same,Normalised tumour weight,[1]; [8],100 ± 25 mg
same,Normalised tumour weight,[1]; [9],202.6 ± 81.5 mg
same,Normalised tumour weight,[1]; [10],746.65 ± 185 mg
same,Normalised tumour weight,[1]; [11],1360.61 ± 288 mg
same,Normalised tumour weight,[1]; [12],2423.09 ± 445.5 mg
same,IC50,HCT-116 cells,2.3 ± 0.3 µM
same,IC50,DU-145 cells,8.2 ± 0.6 µM
same,cell cycle arrest and apoptosis (caspase 3 activation),[2],activities similar to UVI5008
"O=C(NCCSSCCNC(=O)/C(Cc1ccc(O)c(Br)c1)=N/O)/C(Cc1ccc(O)c(Br)c1)=N/O [UVI5000, Psammaplin A]",apoptogenic effect (caspase 3),U937 cells,strongest apoptogenic effect
same,unmethylated p16INK4a promoter DNA (MSP),p16INK4a promoter,displayed a similar activity
same,concentration to inhibit HDAC in cell-based assay relative to enzyme-based assay,HDAC,1800 times
same,expression of p21WAF1/CIP1,"p21WAF1/CIP1; U937, 6 and 16 hrs",dramatically increased
same,anti-proliferative and apoptogenic action,[3],confirmed
same,inhibition of HDAC6 (alpha tubulin acetylation),HDAC6,inhibited the activity of HDAC6
same,"cell cycle arrest, position of the block","[4]; U937, 30 hrs, 1 and 5 μM",arrests in the S and G2 phases
same,cell cycle arrest and apoptosis (caspase 3 activation),[2],induced cell cycle arrest and apoptosis
same,anti-proliferative and apoptogenic action,[5],confirmed
same,global histone H3 acetylation,histone H3,moderate time-dependent increase
same,HDAC1 inhibition,HDAC1,only a weak inhibitor of HDAC1
same,HDAC4 deacetylase activity inhibition,HDAC4,only moderate activity
same,IC50,[6],0.0042 µM
CSCCNC(=O)/C(Cc1c[nH]c2ccc(Br)cc12)=N/O [UVI5020],p21WAF1/CIP1 induction (FIG. 3c),"p21WAF1/CIP1; U937, 24 hrs",enhanced expression
same,"cell cycle arrest and apoptosis, relative to UVI5008 (FIG. 3a)","[4]; U937, 24 hrs",inactive at inducing apoptosis and G2M arrest but it induces a G1 arrest
same,apoptotic activity,"[2]; 5 μM, two samples of patient blasts",only a weak induction of apoptosis
SAHA,Normalised tumour weight,[1]; [8],100 ± 24 mg
same,Normalised tumour weight,[1]; [9],166.69 ± 56.8 mg
same,Normalised tumour weight,[1]; [10],892.95 ± 267.6 mg
same,Normalised tumour weight,[1]; [11],1915.59 ± 409.5 mg
same,Normalised tumour weight,[1]; [12],2952.8 ± 636.4 mg
same,unmethylated p16INK4a promoter DNA (MSP),p16INK4a promoter,inactive
same,cell cycle arrest and apoptosis (caspase 3 activation),[2],activities similar to UVI5008
same,mortality,[7],60%
same,tolerability,[7],not tolerable
